Measured values taken from patent US7713994B2 (Wyeth LLC, priority 2005, dated 2010).
Where two headings read alike, the source gives them in different places.

Legend:
[1] = system: LoVo; assay: Cytotoxicity assay (SRB), LoVo; type: cell-based; settings: Homo sapiens, LoVo, 72 h, read-out: In Vitro Cellular Activity IC50 LOVO
Summary of the method: (§1)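 Seeding: BT474 12000, HCT-116 4000, LoVo 6000, MCF-7 6000 cells/well; overnight attachment, 37 °C, 7% CO2. Drug exposure 3 d (BT474 6 d), RPMI 1640 + 5% FBS. Readout: TCA fix, 0.4% SRB, Tris solubilisation, A540.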

[2] = target: T1, cyclin D1/cdk 4 enzyme (Homo sapiens, UniProt P11802); assay: CDK4 ELISA kinase assay (phospho-Rb ser 795 detection); type: biochemical
T1 construct: made in house; host or cells: Sf9 insect cells, recombinant baculovirus
T1 sequence (P11802 whole entry, species assumed): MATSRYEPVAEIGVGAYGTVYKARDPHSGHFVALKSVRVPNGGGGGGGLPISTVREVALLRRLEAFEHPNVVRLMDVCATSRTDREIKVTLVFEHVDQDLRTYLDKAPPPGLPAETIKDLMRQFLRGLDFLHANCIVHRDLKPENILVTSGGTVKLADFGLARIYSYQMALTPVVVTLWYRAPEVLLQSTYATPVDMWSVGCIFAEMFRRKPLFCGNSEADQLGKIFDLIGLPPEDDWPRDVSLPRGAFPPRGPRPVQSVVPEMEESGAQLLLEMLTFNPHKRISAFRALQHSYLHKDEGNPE
T1 sequence (P24385 whole entry partner, species assumed): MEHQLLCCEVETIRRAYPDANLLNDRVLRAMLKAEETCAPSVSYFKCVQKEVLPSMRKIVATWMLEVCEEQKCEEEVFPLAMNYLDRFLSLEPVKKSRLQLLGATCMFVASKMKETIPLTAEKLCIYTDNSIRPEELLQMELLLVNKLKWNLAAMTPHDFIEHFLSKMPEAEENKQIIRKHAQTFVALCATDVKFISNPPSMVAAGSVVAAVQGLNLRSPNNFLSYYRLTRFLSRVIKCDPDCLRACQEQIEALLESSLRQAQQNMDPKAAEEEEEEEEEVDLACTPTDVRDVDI
Summary of the method: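 GST-Rb C-terminal fragment coated on plates; partially purified Sf9-expressed cyclin D1/CDK4, cyclin E/CDK2 or cyclin B/CDK1 with 200 μM ATP, pH 7.5 HEPES/MgCl2 buffer, 1 h at 30 °C; screen compound final 10 μg/ml. Phospho-Rb Ser795 detected by antibody ELISA (TMB, A450); % of control, IC50 from background-subtracted inhibition curves.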

[3] = target: T2, cyclin B/CDK1 enzyme (Homo sapiens, UniProt P06493); assay: CDK1 ELISA kinase assay (phospho-Rb ser 795 detection); type: biochemical
T2 construct: purchased New England BioLabs; host or cells: Sf9 insect cells, recombinant baculovirus
T2 sequence (P06493 whole entry): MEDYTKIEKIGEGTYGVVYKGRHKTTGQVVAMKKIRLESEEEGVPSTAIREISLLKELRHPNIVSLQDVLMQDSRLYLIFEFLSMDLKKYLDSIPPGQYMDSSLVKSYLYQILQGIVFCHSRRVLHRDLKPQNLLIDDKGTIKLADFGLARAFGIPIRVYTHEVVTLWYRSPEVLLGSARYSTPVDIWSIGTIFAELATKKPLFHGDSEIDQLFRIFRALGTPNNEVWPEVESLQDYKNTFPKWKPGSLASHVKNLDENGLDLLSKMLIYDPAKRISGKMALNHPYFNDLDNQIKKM
T2 sequence (P14635 whole entry partner): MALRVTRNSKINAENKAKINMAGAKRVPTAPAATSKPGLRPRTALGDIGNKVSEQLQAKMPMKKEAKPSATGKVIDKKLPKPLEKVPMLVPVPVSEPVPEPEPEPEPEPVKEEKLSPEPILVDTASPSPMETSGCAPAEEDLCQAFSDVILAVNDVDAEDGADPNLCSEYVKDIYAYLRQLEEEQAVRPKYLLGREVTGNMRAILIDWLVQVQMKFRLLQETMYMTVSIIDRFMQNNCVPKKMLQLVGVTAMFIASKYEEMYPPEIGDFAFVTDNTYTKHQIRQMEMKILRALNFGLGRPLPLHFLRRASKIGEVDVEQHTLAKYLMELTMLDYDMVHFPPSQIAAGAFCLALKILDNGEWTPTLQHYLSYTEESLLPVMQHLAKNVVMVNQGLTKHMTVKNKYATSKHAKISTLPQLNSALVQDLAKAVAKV
Description: • 1. High-binding ELISA microtiter plates (Costar) were coated with 40 μl of the kinase substrate (GST fusion of C-terminal fragment of the retinoblastoma susceptibility gene product) diluted to 10 μg/ml in tris-buffered saline (TBS), overnight at 4° C. • 2. Non-specific binding sites were blocked for 1 hour at 4° C. with Superblock in TBS (Pierce), and the plates rinsed with water. • 3. For the screen, 1.5 μl of test compound (200 μg/ml stock in 20% DMSO/20 mM HEPES, pH 7.5) was added to each well. Final dose of the test compound in the assay was 10 ug/ml. […] The kinase reaction (30 μl) was dispensed into each well. Reactions contained 200 μM ATP, 0.5 mg/ml bovine serum albumin (BSA; Sigma), and 0.5 μl partially purified cyclin D1/cdk 4 enzyme*. The enzyme complex is expressed in insect cells (Sf9) infected with recombinant baculovirus and partially purified using ammonium sulfate fractionation. Reaction volumes were adjusted to 30 μl with kinase assay buffer (50 mM HEPES, pH 7.5, 10 mM MgCl2, 5% glycerol, 10 mM 2-mercaptoethanol). • *: For CDK2 assay, 1.0 μl cyclin E/CDK2 enzyme (diluted 1:1000 in kinase assay buffer) was used. The enzyme is isolated from insect cells (Sf9) infected with recombinant baculovirus and partially purified using ammonium sulfate fractionation. For CDK1 assay, 0.08 μl cyclin B/CDK1 enzyme [New England BioLabs; the enzyme is isolated from insect cells (Sf9) infected with recombinant baculovirus carrying human cdc 2 and human cyclin B] was used.
[…] • 5. Plates were incubated at 30° C. for 1 hour. • 6. The reaction mixture was removed by aspiration and replaced with 250 μl TBS containing 0.1% Tween-20 and 5% nonfat dry milk (blocking buffer). The plates were incubated at 4° C. for 1 hour. • 7. The blocking buffer was removed and replaced with 50 μl of the primary antibody [anti-phospho-Rb ser 795 (New England BioLabs) diluted 1:1000 in blocking buffer]. Incubation was at 4° C. for 16-20 hours. • 8. The wells were rinsed 3 times with 250 μl of TBS containing 0.1% Tween-20 followed by the addition of 50 μl of secondary antibody [anti-rabbit IgG conjugated to horseradish peroxidase (Amersham Life Science) diluted 1:1000 in blocking buffer]. • 9. After a 1 hour incubation at room temperature, the wells were rinsed 3 times with 250 μl of TBS/0.1% Tween 20. • 10. TMB (3,3′,5,5′-tetramethylbenzidine dihydrochloride) substrate solution (100 μl; Pierce) was added to each well and the color development reaction allowed to proceed 5-10 minutes at room temperature with shaking. The reaction was stopped by the addition of 2N sulfuric acid (100 μl) and the absorbance values read at 450 nm in a microplate reader (Molecular Devices). Analysis of Results: • 1. The percentage of the absorbance value in wells containing the test compound relative to control wells (no test agent) was determined. • 2. IC50 values of selected compounds were determined from inhibition curves, after subtracting background values (no substrate).

[4] = system: HCT-116; assay: Cytotoxicity assay (SRB), HCT-116; type: cell-based; settings: Homo sapiens, HCT-116, 72 h, read-out: In Vitro Cellular Activity IC50 HCT116
Summary of the method: as §1

[5] = system: MCF-7; assay: Cytotoxicity assay (SRB), MCF-7; type: cell-based; settings: Homo sapiens, MCF7, 72 h, read-out: In Vitro Cellular Activity IC50 MCF-7
Summary of the method: as §1

[6] = system: BT474; assay: Cytotoxicity assay (SRB), BT474; type: cell-based; settings: Homo sapiens, BT-474, 144 h, read-out: In Vitro Cellular Activity IC50 BT474
Summary of the method: as §1

[7] = In Vitro Enzyme Assays, 200 μM ATP, read-out: CDK4 IC50
[8] = In Vitro Enzyme Assays, read-out: CDK1 IC50
[9] = In Vitro Enzyme Assay, cyclin D1/cdk 4, read-out: CDK4 IC50

O=C1NC(=O)c2ccc(-c3ccc(Cl)cc3)cc2/C1=C/Nc1ccc(CN2CCCCC2)cc1 [Example 111, (4Z)-6-(4-Chlorophenyl)-4-({[4-(piperidin-1-ylmethyl)phenyl]amino}methylene)isoquinoline-1,3(2H,4H)-dione]
IC50 ([1]; LoVo cells, SRB, three days): 1.2 µM
IC50 [2, 7]: 19.4 µM
IC50 [3, 8]: > 50 µM
IC50 ([4]; HCT116 cells, SRB, three days): 1.2 µM
IC50 ([5]; MCF-7 cells, SRB, three days): 2.1 µM
IC50 ([6]; BT474 cells, SRB, 6 days): 2.8 µM

COc1ccc(-c2ccc3c(c2)/C(=C/Nc2ccc(CN4CCCCC4)cc2)C(=O)NC3=O)cc1 [Example 116, (4Z)-6-(4-Methoxyphenyl)-4-({[4-(piperidin-1-ylmethyl)phenyl]amino}methylene)-isoquinoline-1,3(2H,4H)-dione]
IC50 ([1]; LoVo cells, SRB, three days): 2.8 µM
IC50 [3, 8]: > 50 µM
IC50 ([4]; HCT116 cells, SRB, three days): 1.3 µM
IC50 ([5]; MCF-7 cells, SRB, three days): 3.2 µM
IC50 ([6]; BT474 cells, SRB, 6 days): 2.8 µM

O=C1NC(=O)c2ccc(N3CCCCC3)cc2/C1=C/Nc1ccc(CN2CCCCC2)cc1 [Example 118, (4Z)-6-Piperidin-1-yl-4-({[4-(piperidin-1-ylmethyl)phenyl]amino}methylene)isoquinoline-1,3(2H,4H)-dione]
IC50 ([1]; LoVo cells, SRB, three days): 3.2 µM
IC50 [3, 8]: > 50 µM
IC50 ([4]; HCT116 cells, SRB, three days): 2.7 µM
IC50 ([5]; MCF-7 cells, SRB, three days): 4.4 µM
IC50 ([6]; BT474 cells, SRB, 6 days): 4 µM

C[C@@H]1CN(c2ccc(N/C=C3\C(=O)NC(=O)c4ccc(I)cc43)cc2)C[C@H](C)N1 [Example 216, (4Z)-4-({[4-(3,5-Dimethylpiperazin-1-yl)phenyl]amino}methylene)-6-iodoisoquinoline-1,3(2H,4H)-dione]
IC50 ([1]; LoVo cells, SRB, three days): 1.3 µM
IC50 [3, 8]: > 50 µM
IC50 ([6]; BT474 cells, SRB, 6 days): 1.1 µM

CC1CN(c2ccc(N/C=C3\C(=O)NC(=O)c4ccc(I)cc43)cc2)CCN1C (centres unmarked) [Example 248, (4Z)-4-({[4-(3,4-Dimethylpiperazin-1-yl)phenyl]amino}methylene)-6-iodoisoquinoline-1,3(2H,4H)-dione]
IC50 ([1]; LoVo cells, SRB, three days): 2.8 µM
IC50 [2, 7]: 2.7 µM
IC50 [3, 8]: > 50 µM
IC50 ([6]; BT474 cells, SRB, 6 days): 3 µM

CN1CCN(c2ccc(NC=C3C(=O)NC(=O)c4ccc(C=Cc5ccc(C(F)(F)F)cc5)cc43)cc2)CC1 [Example 729, 4-{[4-(4-Methyl-piperazin-1-yl)-phenylamino]-methylene}-6-[2-(4-trifluoromethyl-phenyl)-vinyl]-4H-isoquinoline-1,3-dione]
IC50 ([1]; LoVo cells, 3 days, SRB): 17.9 µM
IC50 [2, 9]: 10.9 µM
IC50 ([4]; HCT116 cells, 3 days, SRB): 1.4 µM
IC50 ([5]; MCF-7 cells, 3 days, SRB): 2.1 µM
IC50 ([6]; BT474 cells, 6 days, SRB): 4.7 µM

CN1CCN(c2ccc(NC=C3C(=O)NC(=O)c4ccc(C=CC(O)CO)cc43)cc2)CC1 (centres unmarked) [Example 730, 6-(3,4-Dihydroxy-but-1-enyl)-4-{[4-(4-methyl-piperazin-1-yl)-phenylamino]-methylene}-4H-isoquinoline-1,3-dione]
IC50 ([1]; LoVo cells, 3 days, SRB): 28.8 µM
IC50 [2, 9]: 2.5 µM
IC50 ([4]; HCT116 cells, 3 days, SRB): 17.1 µM
IC50 ([5]; MCF-7 cells, 3 days, SRB): 40.9 µM
IC50 ([6]; BT474 cells, 6 days, SRB): 20.2 µM

COc1cccc(-c2ccc3c(c2)C(=CNCc2ccc(S(N)(=O)=O)cc2)C(=O)NC3=O)c1 [Example 737, 4-({[6-(3-Methoxy-phenyl)-1,3-dioxo-2,3-dihydro-1H-isoquinolin-4-ylidenemethyl]-amino}-methyl)-benzenesulfonamide]
IC50 ([1]; LoVo cells, 3 days, SRB): 15.3 µM
IC50 [2, 9]: 6 µM
IC50 ([4]; HCT116 cells, 3 days, SRB): 17.7 µM
IC50 ([5]; MCF-7 cells, 3 days, SRB): 12.7 µM
IC50 ([6]; BT474 cells, 6 days, SRB): > 50 µM

NS(=O)(=O)c1ccc(CNC=C2C(=O)NC(=O)c3ccc(-c4cccc(Cl)c4)cc32)cc1 [Example 750, 4-({[6-(3-Chloro-phenyl)-1,3-dioxo-2,3-dihydro-1H-isoquinolin-4-ylidenemethyl]-amino}-methyl)-benzenesulfonamide]
IC50 ([1]; LoVo cells, 3 days, SRB): 27.8 µM
IC50 [2, 9]: 2.5 µM
IC50 ([4]; HCT116 cells, 3 days, SRB): 29.1 µM
IC50 ([5]; MCF-7 cells, 3 days, SRB): 39 µM
IC50 ([6]; BT474 cells, 6 days, SRB): > 50 µM

NS(=O)(=O)c1ccc(CNC=C2C(=O)NC(=O)c3ccc(-c4ccccc4Cl)cc32)cc1 [Example 751, 4-({[6-(2-Chloro-phenyl)-1,3-dioxo-2,3-dihydro-1H-isoquinolin-4-ylidenemethyl]-amino}-methyl)-benzenesulfonamide]
IC50 ([1]; LoVo cells, 3 days, SRB): 10.1 µM
IC50 [2, 9]: 2.5 µM
IC50 ([4]; HCT116 cells, 3 days, SRB): 6.3 µM
IC50 ([5]; MCF-7 cells, 3 days, SRB): 8.2 µM
IC50 ([6]; BT474 cells, 6 days, SRB): 7.1 µM

Cc1ccc(-c2ccc3c(c2)C(=CNCc2ccc(S(N)(=O)=O)cc2)C(=O)NC3=O)cc1 [Example 752, 4-{[(1,3-Dioxo-6-p-tolyl-2,3-dihydro-1H-isoquinolin-4-ylidenemethyl)-amino]-methyl}-benzenesulfonamide]
IC50 ([1]; LoVo cells, 3 days, SRB): 33.4 µM
IC50 [2, 9]: 1.3 µM
IC50 ([4]; HCT116 cells, 3 days, SRB): 14.8 µM
IC50 ([5]; MCF-7 cells, 3 days, SRB): 18.5 µM
IC50 ([6]; BT474 cells, 6 days, SRB): 33.3 µM

Cc1cccc(-c2ccc3c(c2)C(=CNCc2ccc(S(N)(=O)=O)cc2)C(=O)NC3=O)c1 [Example 753, 4-{[(1,3-Dioxo-6-m-tolyl-2,3-dihydro-1H-isoquinolin-4-ylidenemethyl)-amino]-methyl}-benzenesulfonamide]
IC50 ([1]; LoVo cells, 3 days, SRB): 23.4 µM
IC50 [2, 9]: 3.4 µM
IC50 ([4]; HCT116 cells, 3 days, SRB): 14.4 µM
IC50 ([5]; MCF-7 cells, 3 days, SRB): 13.3 µM
IC50 ([6]; BT474 cells, 6 days, SRB): 28.9 µM

CN1CCN(c2ccc(NC=C3C(=O)NC(=O)c4ccc(-c5ccccc5)cc43)cc2)CC1 [Example 831, 4-{[4-(4-Methyl-piperazin-1-yl)-phenylamino]-methylene}-6-phenyl-4H-isoquinoline-1,3-dione]
IC50 ([1]; LoVo cells, 3 days, SRB): 2.8 µM
IC50 [2, 9]: 0.19 µM
IC50 ([3]; In Vitro Enzyme Assay, cyclin B/CDK1, read-out: CDK1 IC50): > 50 µM
IC50 ([6]; BT474 cells, 6 days, SRB): 3.2 µM

N=C(N)c1ccc(NC=C2C(=O)NCc3cc(Cl)ccc32)cc1 [Example 857, 4-[(7-Chloro-3-oxo-2,3-dihydro-1H-isoquinolin-4-ylidenemethyl)-amino]-benzamidine]
IC50 ([1]; LoVo cells, 3 days, SRB): > 50 µM
IC50 [2, 9]: 18.5 µM
IC50 ([4]; HCT116 cells, 3 days, SRB): 43.1 µM
IC50 ([5]; MCF-7 cells, 3 days, SRB): > 50 µM
IC50 ([6]; BT474 cells, 6 days, SRB): 24 µM

O=C1NC(=O)c2ccc([N+](=O)[O-])cc2/C1=C/Nc1ccc(CN2CCCCC2)cc1 [compound 42]
IC50 ([1]; LoVo cells, SRB, three days): 5.9 µM
IC50 [3, 8]: > 50 µM
IC50 ([4]; HCT116 cells, SRB, three days): 3 µM
IC50 ([5]; MCF-7 cells, SRB, three days): 7.6 µM
IC50 ([6]; BT474 cells, SRB, 6 days): 4 µM

CN1CCN(c2ccc(N/C=C3\C(=O)NC(=O)c4ccc(-n5cccc5)cc43)cc2)CC1 [compound 60]
IC50 [1]: 2 µM
IC50 [3, 8]: > 50 µM
IC50 [4]: 1.5 µM
IC50 [5]: 2.3 µM
IC50 [6]: 2 µM
